# Data as given in patent US20250134792A1, “COMPOSITIONS AND METHODS FOR TREATING SKIN” (L'Oreal, priority 2023, published 2025).
# Tests used:
# [1] = tested on: normal human epidermal keratinocytes (NHEK); experiment: Proliferation: KI67 staining of NHEKs; assay type: cell-based; settings: proxylane 0.005%, 0.017%, 0.05%; niacinamide 0.0012%, 0.004%, 0.012%; alone or in combination; FIG. 3
# Source text: Surgical skin samples were taken from adults and subjected to the 0.25% trypsin dermis/epidermis separation method described in Rheinwald to obtain suspensions of normal human epidermal keratinocytes (NHEK) and dermal fibroblasts. […] The NHEK cell cultures were initiated using the 3T3 feeder-layer technique described in Rheinwald J. G., Green H.: Epidermal growth factor and the multiplication of cultured human epidermal keratinocytes.
# Keratinocytes were stained against KI67 and expression was quantified.
# [2] = tested on: Normal Human Epidermal Melanocytes-Dark Pigment; experiment: PGE-2 induced inflammation and melanin synthesis; assay type: cell-based; settings: 30 nM PGE2 stimulated melanocytes; 10 mM (0.12%) niacinamide, proxylane (0.19%); 10 days; FIG. 10
# Procedure: Normal Human Epidermal Melanocytes-Dark Pigment (Lot 1981687, Passage 3, ThermoFisher, Waltham, MA) were seeded in 6-well plates at a density of 100,000 cells per well. Cells were grown in culture medium supplemented with Gibo Human Melanocyte Growth Supplement-2 (ThermoFisher, Waltham, MA). […] Following the 10 days, cells were trypsinized and the melanin was isolated using NaOH. A standard curve using commercially available melanin was used to calculate the average cellular melanin content using the recorded optical density of the isolated melanin using a microplate reader. Average cellular melanin content was normalized to total protein content.
# neutrophil elastase = biological target: T1, neutrophil elastase (Homo sapiens, UniProt P08246); settings: alone and in combination; 37° C., fluorescence slope over thirty minutes; FIG. 5
# T1 sequence (P08246 30-267): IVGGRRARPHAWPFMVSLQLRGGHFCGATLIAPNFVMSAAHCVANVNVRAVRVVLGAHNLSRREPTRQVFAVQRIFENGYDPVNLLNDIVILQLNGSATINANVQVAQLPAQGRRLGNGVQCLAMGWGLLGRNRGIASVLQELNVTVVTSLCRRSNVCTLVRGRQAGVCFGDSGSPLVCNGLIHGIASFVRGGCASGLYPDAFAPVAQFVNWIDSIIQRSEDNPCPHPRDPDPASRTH
compound,measurement,setting,value
"NC(=O)c1cccnc1 [vitamin B3, niacinamide]",cell proliferation of keratinocytes (KI67 expression),[1],capable of stimulating
same,melanin production (average cellular melanin content normalized to total protein),[2],significantly decreases
same,elastase activity,neutrophil elastase,inhibit
